Data as given in ChEMBL document CHEMBL3132854, “Synthesis and anticancer activity evaluation of resveratrolchalcone conjugates” (2014).

Columns and labels:
[1] = Growth inhibition of human HOP92 cells assessed as cell growth at 10 uM by sulforhodamine B assay relative to control; values are per cent of control; settings: HOP-92
[2] = test system: NCI-H226; assay: Growth inhibition of human NCI-H226 cells assessed as cell growth at 10 uM by sulforhodamine B assay relative to control; values are per cent of control
[3] = Growth inhibition of human NCI-ADR-RES cells assessed as cell growth at 10 uM by sulforhodamine B assay relative to control; values are per cent of control
[4] = test system: MDA-MB-468; assay: Growth inhibition of human MDA-MB-468 cells assessed as cell growth at 10 uM by sulforhodamine B assay relative to control; values are per cent of control
[5] = test system: SR; assay: Growth inhibition of human SR cells assessed as cell growth at 10 uM by sulforhodamine B assay relative to control; values are per cent of control
[6] = test system: HOP-62; assay: Growth inhibition of human HOP62 cells assessed as cell growth at 10 uM by sulforhodamine B assay relative to control; values are per cent of control
[7] = test system: A498; assay: Growth inhibition of human A498 cells assessed as cell growth at 10 uM by sulforhodamine B assay relative to control; values are per cent of control
[8] = test system: SW-620; assay: Growth inhibition of human SW620 cells assessed as cell growth at 10 uM by sulforhodamine B assay relative to control; values are per cent of control
[9] = Growth inhibition of human RXF393 cells assessed as cell growth at 10 uM by sulforhodamine B assay relative to control; values are per cent of control; settings: RXF 393
[10] = test system: SK-MEL-28; assay: Growth inhibition of human SK-MEL-28 cells assessed as cell growth at 10 uM by sulforhodamine B assay relative to control; values are per cent of control
[11] = test system: K562; assay: Growth inhibition of human K562 cells assessed as cell growth at 10 uM by sulforhodamine B assay relative to control; values are per cent of control
[12] = test system: DU-145; assay: Growth inhibition of human DU145 cells assessed as cell growth at 10 uM by sulforhodamine B assay relative to control; values are per cent of control
[13] = test system: CCRF-CEM; assay: Growth inhibition of human CCRF-CEM cells assessed as cell growth at 10 uM by sulforhodamine B assay relative to control; format: functional; settings: values are per cent of control
[14] = test system: NCI-H322M; assay: Growth inhibition of human NCI-H322M cells assessed as cell growth at 10 uM by sulforhodamine B assay relative to control; values are per cent of control
[15] = test system: UACC-62; assay: Growth inhibition of human UACC62 cells assessed as cell growth at 10 uM by sulforhodamine B assay relative to control; values are per cent of control
[16] = test system: IGROV-1; assay: Growth inhibition of human IGROV1 cells assessed as cell growth at 10 uM by sulforhodamine B assay relative to control; values are per cent of control
[17] = test system: KM12; assay: Growth inhibition of human KM12 cells assessed as cell growth at 10 uM by sulforhodamine B assay relative to control; values are per cent of control
[18] = test system: MCF7; assay: Growth inhibition of human MCF7 cells assessed as cell growth at 10 uM by sulforhodamine B assay relative to control; values are per cent of control
[19] = test system: NCI-H460; assay: Growth inhibition of human NCI-H460 cells assessed as cell growth at 10 uM by sulforhodamine B assay relative to control; values are per cent of control
[20] = test system: BT-549; assay: Growth inhibition of human BT549 cells assessed as cell growth at 10 uM by sulforhodamine B assay relative to control; values are per cent of control
[21] = test system: NCI-H23; assay: Growth inhibition of human NCI-H23 cells assessed as cell growth at 10 uM by sulforhodamine B assay relative to control; values are per cent of control
[22] = test system: SNB-19; assay: Growth inhibition of human SNB19 cells assessed as cell growth at 10 uM by sulforhodamine B assay relative to control; values are per cent of control
[23] = test system: LOX IMVI; assay: Growth inhibition of human LOXIMVI cells assessed as cell growth at 10 uM by sulforhodamine B assay relative to control; values are per cent of control
[24] = test system: M14; assay: Growth inhibition of human M14 cells assessed as cell growth at 10 uM by sulforhodamine B assay relative to control; values are per cent of control
[25] = test system: COLO 205; assay: Growth inhibition of human COLO205 cells assessed as cell growth at 10 uM by sulforhodamine B assay relative to control; values are per cent of control
[26] = Growth inhibition of human OVCAR4 cells assessed as cell growth at 10 uM by sulforhodamine B assay relative to control; values are per cent of control; settings: OVCAR-4
[27] = test system: Malme-3M; assay: Growth inhibition of human MALME-3M cells assessed as cell growth at 10 uM by sulforhodamine B assay relative to control; values are per cent of control
[28] = test system: NCI-H522; assay: Growth inhibition of human NCI-H522 cells assessed as cell growth at 10 uM by sulforhodamine B assay relative to control; values are per cent of control
[29] = Growth inhibition of human OVCAR5 cells assessed as cell growth at 10 uM by sulforhodamine B assay relative to control; values are per cent of control; settings: OVCAR-5
[30] = test system: HL-60(TB); assay: Growth inhibition of human HL-60(TB) cells assessed as cell growth at 10 uM by sulforhodamine B assay relative to control; format: functional; settings: values are per cent of control
[31] = test system: CAKI-1; assay: Growth inhibition of human CAKI-1 cells assessed as cell growth at 10 uM by sulforhodamine B assay relative to control; values are per cent of control

| SMILES | growth, % of control at 10 µM [1] [%] | growth, % of control at 10 µM [2] [%] | growth, % of control at 10 µM [3] [%] | growth, % of control at 10 µM [4] [%] | growth, % of control at 10 µM [5] [%] | growth, % of control at 10 µM [6] [%] | growth, % of control at 10 µM [7] [%] | growth, % of control at 10 µM [8] [%] | growth, % of control at 10 µM [9] [%] | growth, % of control at 10 µM [10] [%] | growth, % of control at 10 µM [11] [%] | growth, % of control at 10 µM [12] [%] | growth, % of control at 10 µM [13] [%] | growth, % of control at 10 µM [14] [%] | growth, % of control at 10 µM [15] [%] | growth, % of control at 10 µM [17] [%] | growth, % of control at 10 µM [18] [%] | growth, % of control at 10 µM [19] [%] | growth, % of control at 10 µM [20] [%] | growth, % of control at 10 µM [21] [%] | other results |
| --- | --- | --- | --- | --- | --- | --- | --- | --- | --- | --- | --- | --- | --- | --- | --- | --- | --- | --- | --- | --- | --- |
| COc1ccc(C(=O)/C=C/c2ccc(/C=C/c3cc(OC)c(OC)c(OC)c3)cc2)cc1 | 51.9 | 72.4 | 50 | 51.9 | 9.61 | 71 | 80 | 39.3 | 71.3 | 84.7 | 14.4 | 68.4 | 19.6 | 64.8 | 53.6 | 29.2 | 30.6 | 59.6 | 41.6 | 43.5 | growth, % of control at 10 µM [16]: 6.66%; growth, % of control at 10 µM [22]: 74.4%; growth, % of control at 10 µM [23]: 24.7%; growth, % of control at 10 µM [24]: 67%; growth, % of control at 10 µM [25]: 68.2%; growth, % of control at 10 µM [26]: 65.7%; growth, % of control at 10 µM [27]: 66.8%; growth, % of control at 10 µM [28]: 5.55%; growth, % of control at 10 µM [29]: 117%; growth, % of control at 10 µM [30]: 21.5%; growth, % of control at 10 µM [31]: 74.4% |
| COc1ccc(C(=O)/C=C/c2ccc(/C=C/c3ccc(Cl)cc3)cc2)cc1 | 102 | 101 | 111 | 110 | 85.6 | 101 | 78.1 | 99.8 | 116 | 104 | 87.8 | 108 | 97.7 | 76.6 | 92.7 | 100 | 93 | 102 | 103 | 103 | growth, % of control at 10 µM [16]: 95.7%; growth, % of control at 10 µM [22]: 97.6%; growth, % of control at 10 µM [23]: 105%; growth, % of control at 10 µM [24]: 101%; growth, % of control at 10 µM [25]: 107%; growth, % of control at 10 µM [26]: 107%; growth, % of control at 10 µM [27]: 87.4%; growth, % of control at 10 µM [28]: 125%; growth, % of control at 10 µM [29]: 96.6%; growth, % of control at 10 µM [30]: 94.4%; growth, % of control at 10 µM [31]: 93.9% |
| COc1ccc(C(=O)/C=C/c2ccc(/C=C/c3ccc(F)cc3)cc2)cc1 | 108 | 109 | 96.1 | 112 | 91 | 120 | 87.5 | 104 | 117 | 112 | 86.3 | 109 | 104 | 99.6 | 104 | 104 | 93.9 | 104 | 101 | 98.1 | growth, % of control at 10 µM [16]: 112%; growth, % of control at 10 µM [22]: 100%; growth, % of control at 10 µM [23]: 97.4%; growth, % of control at 10 µM [24]: 95.2%; growth, % of control at 10 µM [25]: 107%; growth, % of control at 10 µM [26]: 115%; growth, % of control at 10 µM [27]: 99.9%; growth, % of control at 10 µM [28]: 84%; growth, % of control at 10 µM [29]: 102%; growth, % of control at 10 µM [30]: 101%; growth, % of control at 10 µM [31]: 91.2% |
| COc1ccc(/C=C/c2ccc(/C=C/C(=O)c3ccc(Cl)cc3)cc2)cc1 | 98.5 | 112 | 109 | 113 | 82.4 | 105 | 76 | 102 | 115 | 112 | 87.3 | 103 | 97.2 | 97 | 105 | 96.3 | 89.5 | 101 | 93.4 | 100 | growth, % of control at 10 µM [22]: 97.5%; growth, % of control at 10 µM [23]: 95%; growth, % of control at 10 µM [24]: 104%; growth, % of control at 10 µM [25]: 111%; growth, % of control at 10 µM [26]: 102%; growth, % of control at 10 µM [27]: 103%; growth, % of control at 10 µM [28]: 106%; growth, % of control at 10 µM [29]: 102%; growth, % of control at 10 µM [30]: 92.2%; growth, % of control at 10 µM [31]: 92.4% |
